Measured values published in the NIST ThermoML archive (doi:10.1021/je200093f).
Values joined by “and” are separate entries in the source; they are usually repeats but may differ in a detail not shown here. Equal entries are not always repeated.

Tests used:
[1] = 101.33 kPa, Liquid, Vibrating tube method
[2] = excess molar enthalpy (molar enthalpy of mixing); xn = mol fraction of the nth substance listed; settings: 298.15 K, 101 kPa, Liquid, Calvet calorimetry
[3] = xn = mol fraction of the nth substance listed; settings: 298.15 K, 101 kPa, Liquid, Vibrating tube method

CN1CCCCC1 [N-methylpiperidine]
[1]
Settings | mass density [kg/m3]
288.15 K | 821.53
293.15 K | 817.22
298.15 K | 812.62
303.15 K | 808.16
308.15 K | 803.61

CN1CCCCC1 [N-methylpiperidine] + CO
Settings | excess molar enthalpy, [2] | mass density, [3] [kg/m3]
x1 = 0.001664 | -0.00412 kcal/mol and -0.00411 kcal/mol | 786.815
x1 = 0.003322 | -0.00819 kcal/mol | 787.153
x1 = 0.003323 | -0.00814 kcal/mol | 787.15
x1 = 0.004975 | -0.0122 kcal/mol | 787.488
x1 = 0.004976 | -0.0122 kcal/mol | 787.486
x1 = 0.006622 | -0.0162 kcal/mol | 787.816
x1 = 0.006624 | -0.0161 kcal/mol | 787.816
x1 = 0.008264 | -0.0201 kcal/mol | 788.141
x1 = 0.008266 | -0.0201 kcal/mol | 788.139
x1 = 0.0099 | -0.024 kcal/mol | 788.458
x1 = 0.009904 | -0.0239 kcal/mol | 788.454

CN1CCCCC1 [N-methylpiperidine] + O
Settings | excess molar enthalpy, [2] [kcal/mol] | mass density, [3] [kg/m3]
x1 = 0.000735 | -0.00509 | 996.66
x1 = 0.000736 | -0.00513 | 996.651
x1 = 0.000737 | -0.00512 | 996.658
x1 = 0.00147 | -0.0102 | 996.261
x1 = 0.001471 | -0.0103 | 996.253
x1 = 0.001473 | -0.0102 | 996.26
x1 = 0.002202 | -0.0154 | 995.866
x1 = 0.002206 | -0.0155 | 995.858
x1 = 0.002208 | -0.0154 | 995.862
x1 = 0.002934 | -0.0206 | 995.483
x1 = 0.002939 | -0.0206 | 995.482
x1 = 0.002942 | -0.0206 | 995.47
x1 = 0.003666 | -0.0258 | 995.109
x1 = 0.003671 | -0.0258 | 995.097
x1 = 0.003675 | -0.0259 | 995.081
x1 = 0.004398 | -0.0308 | 994.752
x1 = 0.004404 | -0.0309 | 994.733
x1 = 0.004409 | -0.031 | 994.716
